{"source": "patent US9458219B2", "about": "“Human insulin analogue and acylated derivative thereof” (Shanghai Hengrui Pharmaceutical Co., Ltd., priority 2011, dated 2016)", "key": {"[1]": {"tested_on": "rat models sufferring from diabetes (STZ)", "assay": "In vivo long-acting activity assay of PEGylated insulin", "parameters": "species or system Sprague-Dawley (SD) rats", "details": "for Blood glucose value (%): Humulin R 0.04, Detemir 0.2, PEG insulins 0.1 mg/kg; for AOC % / IP (Index of Prolongation): s.c.", "procedure": "Sprague-Dawley (SD) rats, male, used in this experiment were purchased from SINO-BRITSH SIPPR/BK LAB. ANIMAL LTD., CO, License number: SCXK (Shanghai) 2008-0016, 18-20 g. The rats were fed in an environment of SPF level. ICR male mice were fed three days in a laboratory environment, at temperature of 20-25° C., and humidity of 40-60%. The mice were fasted for 8 hrs before the experiment. 100 mg/kg STZ was intraperitoneally injected to establish rat models sufferring from diabetes. Two days later, fasting blood glucose values were measured. […] At the beginning of the experiment, rats were weigh, and the blood glucose levels were measured (cut off tails and the blood glucose levels were detected by using Roche Glucometer and the corresponding test strips, similarly hereafter). On the basis of blood glucose values, rats were randomly divided into groups, 43 rats per group. The drug to be used was prepared in required concentrations. After subcutaneous injection of drugs, blood glucose levels were measured at multiple time points. IP (Index of Prolongation) was calculated according to blood glucose level."}, "[2]": {"tested_on": "rat models sufferring from diabetes (STZ)", "assay": "In vivo long-acting activity assay of insulin derivatives", "parameters": "species or system Sprague-Dawley (SD) rats", "details": "s.c., Humulin R 0.04, Detemir 0.2, others 0.1 mg/kg", "procedure": "The rats were fed in an environment of SPF level. […] 100 mg/kg STZ was intraperitoneally injected to establish rat models sufferring from diabetes. Two days later, fasting blood glucose values were measured. […] At the beginning of the experiment, rats were weigh, and the blood glucose levels were measured (cut off tails and the blood glucose levels were detected by using Roche Glucometer and the corresponding test strips, similarly hereafter). On the basis of blood glucose values, rats were randomly divided into groups, 43 rats per group. The drug to be used was prepared in required concentrations. After subcutaneous injection of drugs, blood glucose levels were measured at multiple time points. IP (Index of Prolongation) was calculated according to blood glucose level."}, "[3]": {"details": "Table 5, Humulin R 0.04, Detemir 0.2, PEG (20 kD) insulins 0.1 mg/kg"}, "[4]": {"details": "Table 6, Humulin R 0.04, Detemir 0.2, PEG (30/40 kD) insulins 0.1 mg/kg"}}, "data": [{"substance": "Detemir", "values": [{"measurement": "Blood glucose value (%)", "setting": "[1]; Table 5, 0 h", "result": 100, "unit": "%"}, {"measurement": "Blood glucose value (%)", "setting": "[1]; Table 5, 1 h", "result": 96.63, "unit": "%"}, {"measurement": "Blood glucose value (%)", "setting": "[1]; Table 5, 2 h", "result": 57.24, "unit": "%"}, {"measurement": "Blood glucose value (%)", "setting": "[1]; Table 5, 4 h", "result": 32.49, "unit": "%"}, {"measurement": "Blood glucose value (%)", "setting": "[1]; Table 5, 6 h", "result": 40.98, "unit": "%"}, {"measurement": "Blood glucose value (%)", "setting": "[1]; Table 5, 8 h", "result": 86.94, "unit": "%"}, {"measurement": "Blood glucose value (%)", "setting": "[1]; Table 5, 10 h", "result": 112.66, "unit": "%"}, {"measurement": "Blood glucose value (%)", "setting": "[1]; Table 5, 12 h", "result": 127.52, "unit": "%"}, {"measurement": "AOC %", "setting": "[1]; [3]", "result": 7.39, "unit": "%"}, {"measurement": "IP (Index of Prolongation)", "setting": "[1]; [3]", "result": 100}, {"measurement": "AOC %", "setting": "[1]; [4]", "result": 5.92, "unit": "%"}, {"measurement": "IP (Index of Prolongation)", "setting": "[1]; [4]", "result": 100}, {"measurement": "Blood glucose value (%)", "setting": "[1]; Table 6, time 0", "result": 100.00, "unit": "%"}, {"measurement": "Blood glucose value (%)", "setting": "[1]; Table 6, time 1", "result": 104.15, "unit": "%"}, {"measurement": "Blood glucose value (%)", "setting": "[1]; Table 6, time 2", "result": 74.83, "unit": "%"}, {"measurement": "Blood glucose value (%)", "setting": "[1]; Table 6, time 3", "result": 46.46, "unit": "%"}, {"measurement": "Blood glucose value (%)", "setting": "[1]; Table 6, time 4", "result": 23.36, "unit": "%"}, {"measurement": "Blood glucose value (%)", "setting": "[1]; Table 6, time 6", "result": 17.11, "unit": "%"}, {"measurement": "Blood glucose value (%)", "setting": "[1]; Table 6, time 8", "result": 32.52, "unit": "%"}, {"measurement": "Blood glucose value (%)", "setting": "[1]; Table 6, time 10", "result": 94.89, "unit": "%"}, {"measurement": "Blood glucose value (%)", "setting": "[1]; Table 6, time 12", "result": 110.45, "unit": "%"}, {"measurement": "Blood glucose level (%)", "setting": "[2]; 0 h", "result": 100.00, "unit": "%"}, {"measurement": "Blood glucose level (%)", "setting": "[2]; 0.5 h", "result": 72.21, "unit": "%"}, {"measurement": "Blood glucose level (%)", "setting": "[2]; 1 h", "result": 35.57, "unit": "%"}, {"measurement": "Blood glucose level (%)", "setting": "[2]; 2 h", "result": 14.45, "unit": "%"}, {"measurement": "Blood glucose level (%)", "setting": "[2]; 4 h", "result": 16.32, "unit": "%"}, {"measurement": "Blood glucose level (%)", "setting": "[2]; 6 h", "result": 23.80, "unit": "%"}, {"measurement": "Blood glucose level (%)", "setting": "[2]; 8 h", "result": 34.77, "unit": "%"}, {"measurement": "Blood glucose level (%)", "setting": "[2]; 10 h", "result": 51.42, "unit": "%"}, {"measurement": "Blood glucose level (%)", "setting": "[2]; 12 h", "result": 39.68, "unit": "%"}, {"measurement": "Blood glucose level (%)", "setting": "[2]; 14 h", "result": 58.06, "unit": "%"}, {"measurement": "Blood glucose level (%)", "setting": "[2]; 16 h", "result": 74.84, "unit": "%"}, {"measurement": "Blood glucose level (%)", "setting": "[2]; 18 h", "result": 91.67, "unit": "%"}, {"measurement": "Blood glucose level (%)", "setting": "[2]; 20 h", "result": 99.05, "unit": "%"}, {"measurement": "AOC", "setting": "[2]", "result": 69.2}, {"measurement": "IP (Index of Prolongation)", "setting": "[2]", "result": 100}]}]}
